The values that follow come from patent US20040053872A1, “New sequences” (priority 2000, published 2004).

Where two headings read alike, the source gives them in different places. Strand notation (5' to 3'): a small letter for the sugar, then the base; units joined by * are phosphorothioate-linked, units joined directly phosphodiester-linked; [ ] holds rarer units or linkages, { } end groups; capitals alone tell only the bases. r = 2'-OH (RNA)

What all share (assay type): biochemical
Data set [1] deals with T1, recombinant HIV-1 RT K103N/E478Q (Human immunodeficiency virus type 1 group M subtype B, UniProt P03366, E1077Q/K702N).
T1 construct: performed by recombinant HIV-1 RT:s with defined
The data set can be described thus: RT assay: inhibition of RNA dependent DNA polymerisation (modified Lenti RT assay). Conditions: read-out: IC50 of indicated inhibitor in RT assay. Here is the method:
(§1) The flourimetric RT assay (Cavidi® Lenti RT activity kit), available from Cavidi Tech, Uppsala, Sweden, was used for the determination of RT activity. In short, poly(rA) covalently bound to the wells of a 96 well microtiter plate serves as template for the incorporation of 5-bromodeoxyuridine 5′-triphosphate (BrdUTP) during the reverse transcription step at 33° C. The amount of bromodeoxyuridine monophosphate (BrdUMP) incorporated into DNA is detected with an alkaline phosphatase (Ap) conjugated, anti-BrdU monoclonal antibody. An Ap substrate, 4-methylumbelliferyl phosphate, is finally used for fluorimetric product detection.
(§2) (i) Protocol for determination of inhibition of RNA dependent DNA polymerisation: The inhibition studies were performed in a modified Lenti RT assay. […] The enzyme reaction was initiated by addition of 100 μl aliquots of the enzyme/inhibitor mixture to each well of a microtiter plate containing 100 μl RT reaction mixture per well. The polymerase reaction was allowed to proceed for 3 hours at 33° C., whereupon the reaction was terminated by a wash of the plate. […] The amount of RT used was standardised to an activity corresponding to 90-130 pg (7-10×10^−16 mol) reference HIV-1 RT per well
(§3) The capacity of the indicated substances to inhibit the enzymes in a panel of recombinant HIV 1 subtype B RTs was studied according to “Protocol for determination of inhibition of RNA dependent DNA polymerisation” (protocol (i) above). The final nucleotide substrate (BrdUTP) concentration was 0.35 μM, and the primer (odT22) amount was 0.03 ng per well.

Data set [2] concerns the target T2, recombinant HIV-1 RT L100I (Human immunodeficiency virus type 1 group M subtype B, UniProt P03366, L699I).
T2 construct: performed by recombinant HIV-1 RT:s with defined
The data set is described as above. To be noted: read-out: IC50 of indicated inhibitor in RT assay. Here is the method: as §1, §2, §3

Data set [3] has as its target T3, recombinant HIV-1 RT T215Y (Human immunodeficiency virus type 1 group M subtype B, UniProt P03366, T814Y).
T3 construct: performed by recombinant HIV-1 RT:s with defined
Described as above. To be noted: read-out: IC50 of indicated inhibitor in RT assay. Here is the method:
as §1, §2, §3

Data set [4] addresses T4, recombinant HIV-1 RT, ref RT (HIV type B, clone BH 10) (Human immunodeficiency virus type 1 group M subtype B, UniProt P03366). The data set is described as above. Conditions: enzyme/inhibitor preincubated 30 minutes at 33° C., BrdUTP 0.35 μM, odT22 0.03 ng per well, 3 hours, read-out: IC50 of indicated inhibitor in RT assay. The arrangement: performed by recombinant HIV-1 RT:s with defined. The method, then: as §1
(i) Protocol for determination of inhibition of RNA dependent DNA polymerisation: The inhibition studies were performed in a modified Lenti RT assay. The inhibitors were serially diluted in five steps, whereupon enzyme dilution was added and the enzyme/inhibitor mixtures were incubated for 30 minutes at 33° C. The enzyme reaction was initiated by addition of 100 μl aliquots of the enzyme/inhibitor mixture to each well of a microtiter plate containing 100 μl RT reaction mixture per well. The polymerase reaction was allowed to proceed for 3 hours at 33° C., whereupon the reaction was terminated by a wash of the plate. […] The amount of RT used was standardised to an activity corresponding to 90-130 pg (7-10×10^−16 mol) reference HIV-1 RT per well […]

Data set [5] deals with T4, recombinant HIV-1 RT, ref RT (HIV type B, clone BH 10). The arrangement: performed by recombinant HIV-1 RT:s with defined. Conditions: second strand DNA synthesis, preincubation 30 minutes at 33° C., 3 hours, read-out: IC50 of indicated inhibitor in DNAp assay. An excerpt:
The flourimetric DNA-polymerase assay used is available from Cavidi Tech AB, Uppsala, Sweden. It is based on a short DNA primer analogous to a part of the tRNA^Lys3 sequence. The template is a single stranded deoxynucleotide template with part of the sequence complementary to the primer. The enzyme reaction is dependent on all four deoxynucleotide bases. The thymidine triphosphate is, however, replaced by BrdUTP. The amount of BrdUMP incorporated into DNA during the polymerase reaction is detected with an alkaline phosphatase (Ap) conjugated anti-BrdU monoclonal antibody. An Ap substrate, 4-methylumbelliferyl phosphate, is finally used for fluorimetric product detection.
(ii) Protocol for determination of inhibition of second strand synthesis on a variable DNA template: The inhibition studies were performed in a modified DNA polymerase assay. The inhibitors were serially diluted in five steps, enzyme dilution was added and the enzyme/inhibitor mixtures were incubated for 30 minutes at 33° C. The enzyme reaction was initiated by addition of 75 μl aliquots of the enzyme/inhibitor mixture to each well of a microtiter plate containing 75 μl DNA polymerase reaction mixture per well. The polymerase reaction was allowed to proceed for 3 hours at 33° C. whereupon the reaction was terminated by a wash of the plate. […]

[6] abbreviates: enzyme/inhibitor preincubated 30 minutes at 33° C., BrdUTP 0.35 μM, odT22 0.03 ng per well, 3 hours.
Where [7] appears, read: RT and inhibitor added directly to the assay mixture without preincubation.

A word on the IC50: it is the concentration that inhibits the measured activity by half. Take “substance 198: 15-mer RNA phosphorothioate with the base sequence of tRNALys3 anticodon stem and loop, SEQ ID NO:7 (rC*rA*rG*rA*rC*rU*rU*rU*rU*rA*rA*rU*rC*rU*rG) [reference compound]”: the IC50 is 1100 nM in data set [1] (setting [6]); 450 nM in data set [2] (setting [6]); 340 nM in data set [3] (setting [6]); 470 nM in data set [4]; 550 nM in data set [5].

Take “substance 199: 35-mer RNA molecule having the sequence set out in SEQ ID NO:5; similar to SEQ ID NO:4 with some naturally occurring nucleotide derivatives (GCUCAGNCGGNAGAGCANCAGACUUUUAANCUGAN; RNA, backbone, methylation of C and the base at N not given here; naturally occurring modified nucleosides at n positions)”: the half-maximal inhibitory concentration (IC50) in data set [1] (setting [7]) was found to be 9.8 nM; in data set [1] (setting [6]) it was 10 nM; in data set [2] (setting [7]) it was 7.4 nM; in data set [2] (setting [6]), 10 nM; in data set [3] (setting [7]), 9.3 nM; in data set [3] (setting [6]) it was 11 nM. For the same substance, the figures for the IC50 in data set [4] and in data set [5] were 6.6 nM and 40 nM, respectively.
